# Assay results reported in ChEMBL document CHEMBL6074635, “Replacement of the essential nitro group by electrophilic warheads towards nitro-free antimycobacterial benzothiazinones” (Eur J Med Chem, 2024).
# Key:
# [1] = target: T1, Decaprenylphosphoryl-beta-D-ribose oxidase (Mycobacterium tuberculosis (strain ATCC 25618 / H37Rv)) (UniProt P9WJF1); test: Substrate activity at recombinant Mycobacterium tuberculosis DprE1 extracted from Escherichia coli BL21(DE3) assessed as fold change in Km incubated for 60 mins by resazurin dye based fluorescence plate reader analysis relative to FPR
# T1 sequence (whole entry): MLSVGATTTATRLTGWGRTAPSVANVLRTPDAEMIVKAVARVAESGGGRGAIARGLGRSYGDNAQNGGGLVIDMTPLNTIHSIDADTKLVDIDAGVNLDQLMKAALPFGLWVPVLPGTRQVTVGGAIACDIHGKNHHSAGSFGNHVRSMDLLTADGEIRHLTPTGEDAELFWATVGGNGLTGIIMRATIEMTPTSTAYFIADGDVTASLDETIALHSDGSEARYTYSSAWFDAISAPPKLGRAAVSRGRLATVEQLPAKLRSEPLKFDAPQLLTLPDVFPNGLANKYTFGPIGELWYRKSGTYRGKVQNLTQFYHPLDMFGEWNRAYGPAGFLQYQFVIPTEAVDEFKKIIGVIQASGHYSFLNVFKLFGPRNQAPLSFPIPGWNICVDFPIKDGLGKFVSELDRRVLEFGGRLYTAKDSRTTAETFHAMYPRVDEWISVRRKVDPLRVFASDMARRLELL
# [2] = target: T1, Decaprenylphosphoryl-beta-D-ribose oxidase (Mycobacterium tuberculosis (strain ATCC 25618 / H37Rv)); test: Reversible inhibition of recombinant Mycobacterium tuberculosis DprE1 extracted from Escherichia coli BL21(DE3) using FPR/GGPR as substrate by measuring fold change incubated for 60 mins by resazurin dye based fluorescence plate reader analysis relative to (S)-2-Fluoro-N-(2-(2-methyl-1,4-dioxa-8-azaspiro[4.5]decan-8-yl)-4-oxo-6-(trifluoromethyl)-4H-benzo[e][1,3]thiazin-8-yl)acrylamide
# [3] = target: T1, Decaprenylphosphoryl-beta-D-ribose oxidase (Mycobacterium tuberculosis (strain ATCC 25618 / H37Rv)); test: Covalent inhibition of recombinant Mycobacterium tuberculosis DprE1 extracted from Escherichia coli BL21(DE3) assessed as inactivation rate constant (Kinact) using FPR/GGPR as substrate incubated for 60 mins by resazurin dye based fluorescence plate reader analysis
# [4] = target: T1, Decaprenylphosphoryl-beta-D-ribose oxidase (Mycobacterium tuberculosis (strain ATCC 25618 / H37Rv)); test: Covalent inhibition of recombinant Mycobacterium tuberculosis DprE1 extracted from Escherichia coli BL21(DE3) assessed as Kinact/Ki ratio using FPR/GGPR as substrate incubated for 60 mins by resazurin dye based fluorescence plate reader analysis
smiles,measurement,setting,value
CC(C)=CCC/C(C)=C/CC/C(C)=C/CC/C(C)=C/COP(=O)(O)OC1O[C@H](CO)[C@@H](O)[C@H]1O (some centres undefined),fold change (FC),[1],22
C=CS(=O)(=O)Nc1cc(C(F)(F)F)cc2c(=O)nc(N3CCC4(CC3)OC[C@H](C)O4)sc12,fold change (FC),[2],8
C[C@H]1COC2(CCN(c3nc(=O)c4cc(C(F)(F)F)cc(NC(=O)C(C)(C)Br)c4s3)CC2)O1,Kinact,[3],0.067 min⁻¹
same,Ratio,[4],2.13 M⁻¹ s⁻¹
